What was measured:
Test in all cases: relative viability (nuclei count vs DMSO), 5 days (fraction); higher = more cells survive
201T = test system: 201T
In short: (§1)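 Five library-drug doses in √10 steps were combined with a fixed anchor-drug dose, or a single drug was given alone, by pin tool to lung cancer cell lines in 1536-well plates the day after seeding. Nuclei were stained and counted after 5 days. Relative viability is the nuclei count in treated wells over that in vehicle wells, taken as the median of duplicate plates.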

ABC-1 = test system: ABC-1
In short: as §1

BEN = test system: BEN
In short: as §1

CAL-12T = test system: CAL-12T
In short: as §1

COR-L 105 = test system: COR-L 105
In short: as §1

COR-L23 = test system: COR-L23
In short: as §1

EKVX = test system: EKVX
In short: as §1

HARA = test system: HARA
In short: as §1

HCC-366 = test system: HCC-366
In short: as §1

LK-2 = test system: LK-2
In short: as §1

LU99A = test system: LU99A
In short: as §1

NCI-H1437 = test system: NCI-H1437
In short: as §1

NCI-H1650 = test system: NCI-H1650
In short: as §1

NCI-H1666 = test system: NCI-H1666
In short: as §1

NCI-H2009 = test system: NCI-H2009
In short: as §1

NCI-H2170 = test system: NCI-H2170
In short: as §1

NCI-H3122 = test system: NCI-H3122
In short: as §1

NCI-H441 = test system: NCI-H441
In short: as §1

NCI-H661 = test system: NCI-H661
In short: as §1

NCI-H727 = test system: NCI-H727
In short: as §1

NCI-H838 = test system: NCI-H838
In short: as §1

PC-14 = test system: PC-14
In short: as §1

In the case of `CC1(C)CCC(c2ccc(Cl)cc2)=C(CN2CCN(c3ccc(C(=O)NS(=O)(=O)c4ccc(N[C@H](CCN5CCOCC5)CSc5ccccc5)c(S(=O)(=O)C(F)(F)F)c4)cc3)CC2)C1` [Navitoclax] + CS(=O)(=O)N1CCN(Cc2cc3nc(-c4cccc5[nH]ncc45)nc(N4CCOCC4)c3s2)CC1 [Pictilisib] (partner 1 µM), the relative viability (201T; first compound 0.005 µM) was 0.661, the relative viability (201T; first compound 0.01581 µM) was 0.738 and the relative viability (201T; first compound 0.05 µM) was 0.677. The relative viability (201T; first compound 0.1581 µM) was 0.65, the relative viability (201T; first compound 0.5 µM) was 0.707 and the relative viability (ABC-1; first compound 0.005 µM) was 0.795. The relative viability (ABC-1; first compound 0.01581 µM) was 1, the relative viability (ABC-1; first compound 0.05 µM) was 0.686 and the relative viability (ABC-1; first compound 0.1581 µM) was 0.64. For the same compound, the relative viability (ABC-1; first compound 0.5 µM) was 0.616, the relative viability (BEN; first compound 0.005 µM) was 0.548 and the relative viability (BEN; first compound 0.01581 µM) was 0.678. It also gave a relative viability (BEN; first compound 0.05 µM) of 0.625, a relative viability (BEN; first compound 0.1581 µM) of 0.602 and a relative viability (BEN; first compound 0.5 µM) of 0.364. It also gave a relative viability (CAL-12T; first compound 0.005 µM) of 0.549, a relative viability (CAL-12T; first compound 0.01581 µM) of 0.419 and a relative viability (CAL-12T; first compound 0.05 µM) of 0.404. The relative viability (CAL-12T; first compound 0.1581 µM) was 0.522, the relative viability (CAL-12T; first compound 0.5 µM) was 0.393 and the relative viability (COR-L 105; first compound 0.005 µM) was 0.352. It also gave a relative viability (COR-L 105; first compound 0.01581 µM) of 0.45, a relative viability (COR-L 105; first compound 0.05 µM) of 0.41 and a relative viability (COR-L 105; first compound 0.1581 µM) of 0.368. It also gave a relative viability (COR-L 105; first compound 0.5 µM) of 0.308, a relative viability (COR-L23; first compound 0.005 µM) of 0.733 and a relative viability (COR-L23; first compound 0.01581 µM) of 0.919. For the same compound, the relative viability (COR-L23; first compound 0.05 µM) was 0.818, the relative viability (COR-L23; first compound 0.1581 µM) was 0.763 and the relative viability (COR-L23; first compound 0.5 µM) was 0.932. For the same compound, the relative viability (EKVX; first compound 0.005 µM) was 0.487, the relative viability (EKVX; first compound 0.01581 µM) was 0.611 and the relative viability (EKVX; first compound 0.05 µM) was 0.427. For the same compound, the relative viability (EKVX; first compound 0.1581 µM) was 0.41, the relative viability (EKVX; first compound 0.5 µM) was 0.452 and the relative viability (HARA; first compound 0.005 µM) was 0.389. For the same compound, the relative viability (HARA; first compound 0.01581 µM) was 0.372, the relative viability (HARA; first compound 0.05 µM) was 0.384 and the relative viability (HARA; first compound 0.1581 µM) was 0.425. For the same compound, the relative viability (HARA; first compound 0.5 µM) was 0.381, the relative viability (HCC-366; first compound 0.005 µM) was 0.159 and the relative viability (HCC-366; first compound 0.01581 µM) was 0.174. It also gave a relative viability (HCC-366; first compound 0.05 µM) of 0.207, a relative viability (HCC-366; first compound 0.1581 µM) of 0.107 and a relative viability (HCC-366; first compound 0.5 µM) of 0.15. The relative viability (LK-2; first compound 0.005 µM) was 0.612, the relative viability (LK-2; first compound 0.01581 µM) was 0.559 and the relative viability (LK-2; first compound 0.05 µM) was 0.536. It also gave a relative viability (LK-2; first compound 0.1581 µM) of 0.657, a relative viability (LK-2; first compound 0.5 µM) of 0.511 and a relative viability (LU99A; first compound 0.005 µM) of 0.361. It also gave a relative viability (LU99A; first compound 0.01581 µM) of 0.35, a relative viability (LU99A; first compound 0.05 µM) of 0.336 and a relative viability (LU99A; first compound 0.1581 µM) of 0.34. It also gave a relative viability (LU99A; first compound 0.5 µM) of 0.325, a relative viability (NCI-H1437; first compound 0.005 µM) of 0.409 and a relative viability (NCI-H1437; first compound 0.01581 µM) of 0.537. It also gave a relative viability (NCI-H1437; first compound 0.05 µM) of 0.501, a relative viability (NCI-H1437; first compound 0.1581 µM) of 0.445 and a relative viability (NCI-H1437; first compound 0.5 µM) of 0.477. The relative viability (NCI-H1650; first compound 0.005 µM) was 0.541, the relative viability (NCI-H1650; first compound 0.01581 µM) was 0.737 and the relative viability (NCI-H1650; first compound 0.05 µM) was 0.656. It also gave a relative viability (NCI-H1650; first compound 0.1581 µM) of 0.623, a relative viability (NCI-H1650; first compound 0.5 µM) of 0.394 and a relative viability (NCI-H1666; first compound 0.005 µM) of 0.562. The relative viability (NCI-H1666; first compound 0.01581 µM) was 0.609, the relative viability (NCI-H1666; first compound 0.05 µM) was 0.503 and the relative viability (NCI-H1666; first compound 0.1581 µM) was 0.394. It also gave a relative viability (NCI-H1666; first compound 0.5 µM) of 0.475, a relative viability (NCI-H2009; first compound 0.005 µM) of 0.771 and a relative viability (NCI-H2009; first compound 0.01581 µM) of 1.09. For the same compound, the relative viability (NCI-H2009; first compound 0.05 µM) was 0.961, the relative viability (NCI-H2009; first compound 0.1581 µM) was 0.898 and the relative viability (NCI-H2009; first compound 0.5 µM) was 0.979. For the same compound, the relative viability (NCI-H2170; first compound 0.005 µM) was 0.306, the relative viability (NCI-H2170; first compound 0.01581 µM) was 0.327 and the relative viability (NCI-H2170; first compound 0.05 µM) was 0.334. For the same compound, the relative viability (NCI-H2170; first compound 0.1581 µM) was 0.243, the relative viability (NCI-H2170; first compound 0.5 µM) was 0.203 and the relative viability (NCI-H3122; first compound 0.005 µM) was 0.592. For the same compound, the relative viability (NCI-H3122; first compound 0.01581 µM) was 0.585, the relative viability (NCI-H3122; first compound 0.05 µM) was 0.537 and the relative viability (NCI-H3122; first compound 0.1581 µM) was 0.601. For the same compound, the relative viability (NCI-H3122; first compound 0.5 µM) was 0.55, the relative viability (NCI-H441; first compound 0.005 µM) was 0.441 and the relative viability (NCI-H441; first compound 0.01581 µM) was 0.606. It also gave a relative viability (NCI-H441; first compound 0.05 µM) of 0.433, a relative viability (NCI-H441; first compound 0.1581 µM) of 0.529 and a relative viability (NCI-H441; first compound 0.5 µM) of 0.458. It also gave a relative viability (NCI-H661; first compound 0.005 µM) of 0.48, a relative viability (NCI-H661; first compound 0.01581 µM) of 0.443 and a relative viability (NCI-H661; first compound 0.05 µM) of 0.379. It also gave a relative viability (NCI-H661; first compound 0.1581 µM) of 0.406, a relative viability (NCI-H661; first compound 0.5 µM) of 0.465 and a relative viability (NCI-H727; first compound 0.005 µM) of 0.398. The relative viability (NCI-H727; first compound 0.01581 µM) was 0.423, the relative viability (NCI-H727; first compound 0.1581 µM) was 0.33 and the relative viability (NCI-H727; first compound 0.5 µM) was 0.171. The relative viability (NCI-H838; first compound 0.005 µM) was 0.435, the relative viability (NCI-H838; first compound 0.01581 µM) was 0.571 and the relative viability (NCI-H838; first compound 0.05 µM) was 0.541. The relative viability (NCI-H838; first compound 0.1581 µM) was 0.494, the relative viability (NCI-H838; first compound 0.5 µM) was 0.486 and the relative viability (PC-14; first compound 0.005 µM) was 0.648. For the same compound, the relative viability (PC-14; first compound 0.01581 µM) was 0.956, the relative viability (PC-14; first compound 0.05 µM) was 0.746 and the relative viability (PC-14; first compound 0.1581 µM) was 0.748. The relative viability (PC-14; first compound 0.5 µM) was 0.68.

Reference: the supplement of paper PMC10307832
